# Measured values published in US20240368173A1, “TRICYCLIC GPR65 MODULATORS” (PATHIOS THERAPEUTICS LIMITED, priority 2021, published 2024).
# Target: human recombinant GPR65 (Homo sapiens, UniProt Q8IYL9)
# Experiment: Human GPR65 cAMP HTRF antagonist assay
# Assay type: cell-based
# Settings: not given
# Summary of the method: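 Antagonism measured as suppression of the cAMP rise when pH is dropped to 7.2 (control wells pH 7.9) in 1321N1 cells stably carrying human GPR65. Cells in KRH with 1 mM IBMX and 200 μM EDTA saw compound 30 min, then acid stimulation 30 min; HTRF cAMP detection, normalised, 4-parameter logistic IC50.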
# Chain of human recombinant GPR65 (Q8IYL9 whole entry): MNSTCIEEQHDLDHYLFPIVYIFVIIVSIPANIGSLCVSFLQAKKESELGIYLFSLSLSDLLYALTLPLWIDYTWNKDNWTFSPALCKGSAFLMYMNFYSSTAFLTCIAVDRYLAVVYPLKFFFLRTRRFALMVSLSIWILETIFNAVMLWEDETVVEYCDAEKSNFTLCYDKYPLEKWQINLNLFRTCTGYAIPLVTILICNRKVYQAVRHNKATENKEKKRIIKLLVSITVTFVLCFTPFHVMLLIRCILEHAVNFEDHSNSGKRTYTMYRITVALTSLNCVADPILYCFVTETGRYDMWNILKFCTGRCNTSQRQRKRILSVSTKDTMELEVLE
row,Structure (SMILES),IC50 [nM]
1,"O=C(Nc1cc(Cl)c(-c2ccc3nsnc3c2)cc1F)N1[C@H]2CC[C@@H]1c1n[nH]c(=O)cc1C2 [Compound 168, (6S,9R)-N-(4-(Benzo[c][1,2,5]thiadiazol-5-yl)-5-chloro-2-fluorophenyl)-3-oxo-3,5,6,7,8,9-hexahydro-2H-6,9-epiminocyclohepta[c]pyridazine-10-carboxamide]",< 500
2,"CC(C)Oc1cc(-c2cc(F)c(NC(=O)N3[C@H]4CC[C@@H]3c3n[nH]c(=O)cc3C4)cc2Cl)ccn1 [Compound 218, (6S,9R)-N-(5-Chloro-2-fluoro-4-(2-isopropoxypyridin-4-yl)phenyl)-3-oxo-3,5,6,7,8,9-hexahydro-2H-6,9-epiminocyclohepta[c]pyridazine-10-carboxamide]",< 500
3,"O=C(Nc1cc(Cl)c(-c2ccc(OCC(F)F)nc2)cc1F)N1[C@H]2CC[C@@H]1c1c[nH]c(=O)cc1C2 [Compound 322, (6S,9R)-N-(5-Chloro-4-(6-(2,2-difluoroethoxy)pyridin-3-yl)-2-fluorophenyl)-3-oxo-3,5,6,7,8,9-hexahydro-2H-6,9-epiminocyclohepta[c]pyridine-10-carboxamide]",< 500
4,"O=C(Nc1cc(C(F)(F)F)on1)N1C2CCC1c1n[nH]c(=O)cc1C2 (racemic) [Compound 44, (±)-3-Oxo-N-(5-(trifluoromethyl)isoxazole-3-yl)-3,5,6,7,8,9-hexahydro-2H-6,9-epiminocyclohepta[c]pyridazine-10-carboxamide]",< 500
5,"O=C(Nc1cc(Br)c(C(F)(F)F)cc1F)N1C2CCC1c1n[nH]c(=O)cc1C2 (racemic) [Compound 6, (±)-N-(5-Bromo-2-fluoro-4-(trifluoromethyl)phenyl)-3-oxo-3,5,6,7,8,9-hexahydro-2H-6,9-epiminocyclohepta[c]pyridazine-10-carboxamide]",< 500
6,"COc1cnc(F)c2c1[C@H]1CC[C@@H](C2)N1C(=O)Nc1cc(Cl)c(Cl)cc1F [Compound 96, (5R,8S)-N-(4,5-Dichloro-2-fluorophenyl)-1-fluoro-4-methoxy-6,7,8,9-tetrahydro-5H-5,8-epiminocyclohepta[c]pyridine-10-carboxamide]",< 500
7,"O=C(Nc1cc(Cl)c(COc2ccccc2)cc1F)N1[C@H]2CC[C@@H]1c1n[nH]c(=O)cc1C2 [Compound 235, (6S,9R)-N-(5-Chloro-2-fluoro-4-(phenoxymethyl)phenyl)-3-oxo-3,5,6,7,8,9-hexahydro-2H-6,9-epiminocyclohepta[c]pyridazine-10-carboxamide]",< 500
8,"O=C(Nc1ccc(Cl)c(Br)c1)N1[C@H]2CC[C@@H]1c1n[nH]c(=O)cc1C2 [Compound 49, (6S,9R)-N-(3-Bromo-4-chlorophenyl)-3-oxo-3,5,6,7,8,9-hexahydro-2H-6,9-epiminocyclohepta[c]pyridazine-10-carboxamide]",< 500
9,"O=C(Nc1cc(Cl)c(Cl)cc1F)N1[C@H]2CC[C@@H]1c1c(O)cnc(F)c1C2 [Compound 104, (5R,8S)—N-(4,5-Dichloro-2-fluorophenyl)-1-fluoro-4-hydroxy-6,7,8,9-tetrahydro-5H-5,8-epiminocyclohepta[c]pyridine-10-carboxamide]",< 500
10,"N#Cc1cc(F)c(NC(=O)N2[C@H]3CC[C@@H]2c2n[nH]c(=O)cc2C3)cc1Cl [Compound 111, (6S,9R)-N-(5-Chloro-4-cyano-2-fluorophenyl)-3-oxo-3,5,6,7,8,9-hexahydro-2H-6,9-epiminocyclohepta[c]pyridazine-10-carboxamide]",< 500
11,"O=C(Nc1cc(Cl)c(-c2ccccc2)cc1F)N1[C@H]2CC[C@@H]1c1c[nH]c(=O)cc1C2 [Compound 251, (6S,9R)-N-(2-Chloro-5-fluoro-[1,1′-biphenyl]-4-yl)-3-oxo-3,5,6,7,8,9-hexahydro-2H-6,9-epiminocyclohepta[c]pyridine-10-carboxamide]",< 500
12,"O=C(Nc1cc(Cl)c(-c2ccc(OCC3CC3)nc2)cc1F)N1[C@H]2CC[C@@H]1c1n[nH]c(=O)cc1C2 [Compound 318, (6S,9R)-N-(5-Chloro-4-(6-(cyclopropylmethoxy)pyridin-3-yl)-2-fluorophenyl)-3-oxo-3,5,6,7,8,9-hexahydro-2H-6,9-epiminocyclohepta[c]pyridazine-10-carboxamide]",< 500
13,"O=C(Nc1cc(Cl)c(-c2ccc3nonc3c2)cc1F)N1[C@H]2CC[C@@H]1C(F)(F)c1c2ccnc1F [Compound 329, (5S,8R)-N-(4-(Benzo[c][1,2,5]-oxadiazol-5-yl)-5-chloro-2-fluorophenyl)-1,9,9-trifluoro-6,7,8,9-tetrahydro-5H-5,8-epiminocyclohepta[c]pyridine-10-carboxamide]",500 to 5000
14,"O=C(Nc1ccc(OC(F)(F)F)c(Cl)c1)N1C2CCC1c1n[nH]c(=O)cc1C2 (racemic) [Compound 9, (±)-N-(3-Chloro-4-(trifluoromethoxy)phenyl)-3-oxo-3,5,6,7,8,9-hexahydro-2H-6,9-epiminocyclohepta[c]pyridazine-10-carboxamide]",< 500
15,"O=C(Nc1cc(Cl)c(-c2cnc3nonc3c2)cc1F)N1[C@H]2CC[C@@H]1c1n[nH]c(=O)cc1C2 [Compound 165, (6S,9R)-N-(4-([1,2,5]Oxadiazolo[3,4-b]pyridine-6-yl)-5-chloro-2-fluorophenyl)-3-oxo-3,5,6,7,8,9-hexahydro-2H-6,9-epiminocyclohepta[c]pyridazine-10-carboxamide]",< 500
16,"O=C(Nc1cc(Cl)c(Oc2ccc3nonc3c2)cc1F)N1[C@H]2CC[C@@H]1c1n[nH]c(=O)cc1C2 [Compound 294, (6S,9R)-N-(4-(Benzo[c][1,2,5]oxadiazol-5-yloxy)-5-chloro-2-fluorophenyl)-3-oxo-3,5,6,7,8,9-hexahydro-2H-6,9-epiminocyclohepta[c]pyridazine-10-carboxamide]",< 500
17,"O=C(Nc1cc(Br)c(Cl)cc1F)N1[C@@H]2CC[C@H]1c1n[nH]c(=O)cc1C2 [Compound 38, (6R,9S)-N-(5-Bromo-4-chloro-2-fluorophenyl)-3-oxo-3,5,6,7,8,9-hexahydro-2H-6,9-epiminocyclohepta[c]pyridazine-10-carboxamide]",500 to 5000
18,"O=C(Nc1cc(Cl)c(-c2ccc3nonc3c2)cc1F)N1C2CCC1C(F)(F)c1c2ccnc1F (racemic) [Compound 289, (±)-N-(4-(Benzo[c][1,2,5]oxadiazol-5-yl)-5-chloro-2-fluorophenyl)-1,9,9-trifluoro-6,7,8,9-tetrahydro-5H-5,8-epiminocyclohepta[c]pyridine-10-carboxamide]",< 500
19,"O=C(Nc1ccc2nsnc2c1)N1[C@H]2CC[C@@H]1c1n[nH]c(=O)cc1C2 [Compound 186, (6S,9R)—N-(benzo[c][1,2,5]thiadiazol-5-yl)-3-oxo-3,5,6,7,8,9-hexahydro-2H-6,9-epiminocyclohepta[c]pyridazine-10-carboxamide]",500 to 5000
20,"O=C(Nc1cc(Cl)c(C2CC2)cc1F)N1[C@H]2CC[C@@H]1c1n[nH]c(=O)cc1C2 [Compound 42, (6S,9R)-N-(5-Chloro-4-cyclopropyl-2-fluorophenyl)-3-oxo-3,5,6,7,8,9-hexahydro-2H-6,9-epiminocyclohepta[c]pyridazine-10-carboxamide]",< 500
21,"O=C(Nc1ccc(Br)c(C(F)(F)F)c1)N1[C@@H]2CC[C@H]1c1n[nH]c(=O)cc1C2 [Compound 48, (6R,9S)-N-(4-Bromo-3-(trifluoromethyl)phenyl)-3-oxo-3,5,6,7,8,9-hexahydro-2H-6,9-epiminocyclohepta[c]pyridazine-10-carboxamide]",500 to 5000

# Same assay, conditions: 1321N1-hrGPR65 cells, cAMP HTRF, assay pH 7.2; read-out: hGPR65 IC50 (Activity of selected compounds according to the invention)
row,Structure (SMILES),IC50 [nM]
1,"CNC(=O)c1ccc(-c2cc(F)c(NC(=O)N3[C@H]4CC[C@@H]3c3n[nH]c(=O)cc3C4)cc2Cl)cc1 [Compound 130, (6S,9R)-N-(2-Chloro-5-fluoro-4′-(methylcarbamoyl)-[1,1′-biphenyl]-4-yl)-3-oxo-3,5,6,7,8,9-hexahydro-2H-6,9-epiminocyclohepta[c]pyridazine-10-carboxamide]",500 to 5000
2,"COCc1ccncc1-c1cc(F)c(NC(=O)N2[C@H]3CC[C@@H]2c2n[nH]c(=O)cc2C3)cc1Cl [Compound 192, (6S,9R)-N-(5-Chloro-2-fluoro-4-(4-(methoxymethyl)pyridin-3-yl)phenyl)-3-oxo-3,5,6,7,8,9-hexahydro-2H-6,9-epiminocyclohepta[c]pyridazine-10-carboxamide]",500 to 5000
3,"CNCCOc1ccc(-c2cc(F)c(NC(=O)N3[C@H]4CC[C@@H]3c3ccnc(F)c3C4)cc2Cl)cn1 [Compound 300, (5R,8S)—N-(5-Chloro-2-fluoro-4-(6-(2-(methylamino)ethoxy)pyridin-3-yl)phenyl)-1-fluoro-6,7,8,9-tetrahydro-5H-5,8-epiminocyclohepta[c]pyridine-10-carboxamide]",500 to 5000
4,"O=C1NCCc2cc(-c3cc(F)c(NC(=O)N4[C@H]5CC[C@@H]4c4n[nH]c(=O)cc4C5)cc3Cl)ccc21 [Compound 151, (6S,9R)-N-(5-Chloro-2-fluoro-4-(1-oxo-1,2,3,4-tetrahydroisoquinolin-6-yl)phenyl)-3-oxo-3,5,6,7,8,9-hexahydro-2H-6,9-epiminocyclohepta[c]pyridazine-10-carboxamide]",> 5000
5,"O=C(Nc1cc(Br)c(C(F)(F)F)cc1F)N1[C@@H]2CC[C@H]1c1n[nH]c(=O)cc1C2 [Compound 34, (6R,9S)-N-(5-Bromo-2-fluoro-4-(trifluoromethyl)phenyl)-3-oxo-3,5,6,7,8,9-hexahydro-2H-6,9-epiminocyclohepta[c]pyridazine-10-carboxamide]",> 5000
6,"COCc1cncc(-c2cc(F)c(NC(=O)N3[C@H]4CC[C@@H]3c3n[nH]c(=O)cc3C4)cc2Cl)c1 [Compound 280, (6S,9R)-N-(5-Chloro-2-fluoro-4-(5-(methoxymethyl)pyridin-3-yl)phenyl)-3-oxo-3,5,6,7,8,9-hexahydro-2H-6,9-]",500 to 5000
7,"CS(=O)(=O)c1ccc(-c2cc(F)c(NC(=O)N3[C@H]4CC[C@@H]3c3n[nH]c(=O)cc3C4)cc2Cl)cn1 [Compound 180, (6S,9R)-N-(5-Chloro-2-fluoro-4-(6-(methylsulfonyl)pyridin-3-yl)phenyl)-3-oxo-3,5,6,7,8,9-hexahydro-2H-6,9-epiminocyclohepta[c]pyridazine-10-carboxamide]",500 to 5000
